Measured values: ChEMBL document CHEMBL3507680, “University of Dundee, Gates Library screen for HepG2 cell viability”

Assay: Human HepG2 cell viability assay in 384 well format
Type: toxicity, cell-based
Design: dose 125 nL, time 70.5 hour; cytotoxicity at 70.5 h: concentration not given beside the values
Settings: HepG2 cells, read-out: Inhibition

Point of comparison: `Cc1cnn(CCC(=O)N2CCOC(c3nc(C(C)(C)C)n[nH]3)C2)c1` (stereo not given), cytotoxicity at 70.5 h 15.8%. Against it:
- Cc1cccnc1NC(=O)CSc1ccc2c(c1)OCCO2 — lower, -9.85%
- CCOc1ccc(CSC(C)c2nc(C)no2)nc1 (stereo not given) — lower, -6.64%
- CCc1nc(CN2CCCC2C(=O)NC2CC2)cs1 (stereo not given) — lower, -7.43%
- CN1CCN(c2ncc(CNCCCc3cccc(F)c3)cn2)CC1 — higher, 25.4%
- COc1c(C)cnc(CN2CCCC(c3noc(C4CC4)n3)C2)c1C (stereo not given) — lower, 7.81%
- Cc1ccc(S(=O)(=O)N(CC2CCOC2)C2CC2)cc1N(C)C (stereo not given) — lower, 0.338%
- N#Cc1ccc(CN(CCF)Cc2cccc(F)c2)cc1 — lower, 6.81%
- CSCCC(NC(=O)C1CC1)C(=O)N(C)Cc1ccsc1 (stereo not given) — lower, 10.7%
- CN(Cc1nc(N)nc(N(C)C)n1)Cc1cccc2ccccc12 — lower, -10.6%
- CNC(=O)NC(=O)CN(Cc1ccc(C#N)cc1)Cc1cccc(F)c1 — lower, -2.77%
- O=C(CCN1CCOCC1)Nc1cccc(CNCc2cccs2)c1 — lower, -8.33%
- Cc1ccc(CNCc2cccc(NC(=O)CCN3CCOCC3)c2)s1 — lower, -5.6%
- COc1ccc(CCn2cnc(C#N)n2)cc1 — lower, -12.6%
- CC(C)N(Cc1ccccn1)C(=O)CCC(=O)c1ccccc1 — lower, -7.32%
- COCCOCC(=O)Nc1nc2c(OC)cc(F)cc2s1 — lower, -8.97%
- Cc1nc(C(C)C)sc1C(=O)NS(=O)(=O)c1ccc(C#N)cc1 — lower, -9.15%
- O=C1NCCN1C1CCN(Cc2ccccn2)CC1 — lower, -5.43%
- Cc1nc(CN(C)C(=O)Nc2cnn(CC3CCCO3)c2)cs1 (stereo not given) — lower, -1.56%
- CN(CCOc1cccc(CNC(=O)C2CC2)c1)C1CCOCC1 — lower, -8.5%
- CCOCC(O)CN1CCN(C(=O)c2ccnc(N(C)C)c2)CC1 (stereo not given) — lower, -6.8%
- CCNC(=O)N1CCCCC1CCO (stereo not given) — lower, 12.6%
- CN(Cc1cnccn1)C(=O)c1ccnc(OC2CCC2)c1 — lower, -9.6%
- Cc1cnn(CC2CCCN2CC(=O)N(C)Cc2ccc(C)o2)c1 (stereo not given) — lower, -7.64%
- CCOCC(O)CN1CCN(C(=O)c2cccc(F)c2)CC1 (stereo not given) — lower, -7.93%
- O=C(CN1CCc2ccccc21)Nc1ccc(OC(F)F)cc1 — lower, 9.55%
- O=C1CN(Cc2nnc(-c3ccc(Br)cc3)o2)CCN1 — lower, 4.44%
- Cn1cnc(S(=O)(=O)N2CCCC2)c1Cl — lower, -10.3%
- CCN1CCN(S(=O)(=O)c2ncn(C)c2Cl)CC1 — lower, -8.62%
- CC(CNC(=O)c1ccc(F)cc1Cl)N1CCCC1 (stereo not given) — lower, -7.32%
- O=C1CN(Cc2nnc(-c3ccccc3Br)o2)CCN1 — lower, -6.27%
- O=C(NCc1ccoc1)Nc1ccc(CN2CCOC2=O)cc1 — higher, 19%
- NC(=O)CN1CCCN(C(=O)c2ccn(-c3ccccc3)n2)CC1 — lower, -3.77%
- OC1CCN(Cc2cc3c(cc2Br)OCCO3)CC1 — lower, 0.754%
- CCc1nnc2n1CCN(C(=O)c1csc(-c3cnn(C)c3)n1)C2 — lower, -6.07%
- COCCN(Cc1ccc(F)cc1Cl)C(=O)c1ccc(=O)[nH]n1 — lower, -3.15%
- O=C(NCCO)Nc1cccc(Cl)c1SC(F)F — higher, 16.9%
- COc1ccccc1OCC(=O)Nc1ncccc1OC(F)F — lower, -7.67%
- Cc1cc(CN2CCc3nn(C)c(=O)cc3C2)on1 — lower, 3.7%
- Cn1c(CNc2c(F)cccc2-n2cccn2)cc(=O)n(C)c1=O — lower, 0.334%
- Cc1ccc(CC(=O)N2CCOC(c3nc(C)n[nH]3)C2)cn1 (stereo not given) — lower, -4.16%
- O=C(CSc1ccc2c(c1)OCCO2)NS(=O)(=O)C1CCCCC1 — lower, 0.938%
- Cc1ccccc1S(=O)(=O)NC(=O)CSc1ccc2c(c1)OCCO2 — lower, -4.74%
- O=C(Nc1ccnc(OC2CCOC2)c1)c1cc(F)ccc1F (stereo not given) — lower, 14.1%
- CCNS(=O)(=O)c1ccc(C)c(C(=O)N(C)Cc2ccco2)c1 — lower, -5.04%
- Cc1occc1C(=O)Nc1ccnc(OC2CCOC2)c1 (stereo not given) — lower, -7.45%
- O=C(c1ccc(Br)s1)N1CCN(Cc2ccc(OC(F)(F)F)cc2)CC1 — lower, 1.44%
- CCc1nc(CN2CCCN(Cc3cnn(C)c3)CC2)no1 — lower, 0.0385%
- O=C(c1cc(Cl)cc(Cl)c1)N1CCN(c2nccs2)CC1 — lower, -1.02%
- CC(C)NC(=O)NCCCc1cc(N)n(-c2ccccc2)n1 — higher, 15.9%
- Nc1cc(CCCNC(=O)NC2CC2)nn1-c1ccccc1 — lower, -2.83%
- O=C(c1cc(Cl)c2c(c1)OCO2)N1CCN(c2nccs2)CC1 — lower, 1.39%
- Cc1nn(C)c(N(C)C)c1CNCC(O)COc1ccc(F)cc1 (stereo not given) — lower, 2.45%
- CC1(NC(=O)Cc2csc(C(C)(C)C)n2)CCS(=O)(=O)C1 (stereo not given) — higher, 18.9%
- COc1ccc(NC(=O)NC(C)(C)c2noc(C)n2)cc1 — lower, 0.532%
- CC(C#N)CSc1ccccc1NCC(=O)NCc1ccccc1 (stereo not given) — lower, 4.47%
- CC(C)CNC(=O)NC(=O)CNc1ccccc1SCC(C)C#N (stereo not given) — lower, -2.52%
- Cc1cnn(CC2CCCN2Cc2coc(-c3cccs3)n2)c1 (stereo not given) — lower, -0.977%
- COCC(NC(=O)c1ccc[nH]1)c1cccc(C(F)(F)F)c1 (stereo not given) — higher, 17.9%
- CCn1nc2c(cc1=O)CN(Cc1nc(N)c3ccccc3n1)CC2 — lower, -2.07%
- NC(=O)CCOc1nc(-c2ccccc2Cl)no1 — higher, 16.5%
- O=C(NCC(F)F)N1CCC(n2ccc(C(F)(F)F)n2)CC1 — lower, 2.24%
- CN(CCC(F)(F)F)C(=O)[C@H]1CSCN1C(=O)OC(C)(C)C — lower, -1.73%
- CCOCCN1CCN(Cc2nnc(C3CC3)o2)CC1CC (stereo not given) — lower, 13.5%
- COc1ccc(NC(C)C(=O)N2CCN(Cc3ccccc3)CC2)cn1 (stereo not given) — lower, -10%
- CCc1ncc2c(n1)CN(Cc1nnc(C)o1)CC2 — lower, -8.24%
- Cc1cnn(CC2CCCN2Cc2coc(-c3ccccc3)n2)c1 (stereo not given) — lower, 13.5%
- CCc1noc(C(C)N(C)CC(=O)Nc2cccc(C)n2)n1 (stereo not given) — lower, -6.94%
- CCc1nc(CN2CCCC(N(C)Cc3cnn(C)c3)C2)no1 (stereo not given) — lower, -10.2%
- CN(Cc1cccs1)C(=O)CN1CCCC1Cn1cncn1 (stereo not given) — lower, 2.88%
- CCc1nc(CN2CCCN(c3ncnc4ccccc34)CC2)no1 — higher, 40.8%
- CC(C)c1noc(CN(Cc2ccccc2F)C2CC2)n1 — lower, -12%
- COc1cc(NC(=O)c2cc(C)sc2C)c(C(=O)N(C)C)cc1OC — lower, -19.4%
- CC(C)Cc1noc(CN2CCC(NC(=O)c3cccs3)CC2)n1 — lower, -8.58%
- Cc1c(CC(=O)N2CCN(CC(F)(F)F)CC2)nnn1-c1ccccc1 — lower, -11.3%
- NS(=O)(=O)CCNC(=O)C1(c2ccc(Br)cc2)CC1 — lower, -10.5%
- Cc1cc(CN2CC[C@H]3C[C@@H](C)O[C@@H]3C2)no1 — lower, -7.88%
- Cn1cc(N2CCC3(CCCN(Cc4ccoc4)C3)C2=O)cn1 (stereo not given) — lower, -6.63%
- O=C(c1ccco1)N1C[C@H]2CN(Cc3cccc(F)c3)C(=O)[C@H]2C1 — lower, -7.79%
- O=C(c1ccnnc1)N1C[C@H]2CN(Cc3cccc(F)c3)C(=O)[C@H]2C1 — lower, -13.7%
- Cc1cc(CN2CC[C@H]3C[C@@H](c4nccs4)O[C@@H]3C2)no1 — lower, -2.76%
- C[C@@H]1C[C@@H]2CCN(Cc3ccncc3)C[C@H]2O1 — lower, -3.23%
- Cc1noc(C)c1CN1CC[C@H]2C[C@H](c3ccncn3)O[C@@H]2C1 — lower, -8.76%
- COc1cc(N2CC[C@H](O)[C@@H]2Cc2ccccc2)ncn1 — higher, 16.6%
- CC(C)Nc1ncnc2c1CCN(C(=O)CCc1ccccc1)CC2 — lower, -3.23%
- CC(C)Nc1ncnc2c1CCN(C(=O)N1CCOCC1)CC2 — lower, 10.6%
- CN(C)C(=O)N1CCC2(CC1)C(c1cnn(C)c1)CC(=O)N2C (stereo not given) — lower, -7.08%
- Cc1cccc(C(=O)N2C[C@H](NS(C)(=O)=O)[C@@H]3OCCC[C@@H]32)n1 — lower, -10.2%
- CN1CCN(Cc2ccsc2)Cc2cccnc21 — lower, -6.75%
- CN1CCN(Cc2cccnc2)Cc2cccnc21 — lower, -7.13%
- CC(C)Nc1ncnc2c1CCN(C(=O)c1ccc[nH]1)CC2 — lower, -9.63%
- CS(=O)(=O)N[C@@H]1CN(C(=O)c2cnccn2)[C@@H]2CCCO[C@@H]21 — higher, 29.4%
- COCCN1CCN(Cc2ccoc2)Cc2cccnc21 — lower, 6.66%
- Cc1nn(C)c(N(C)C)c1CNCC(O)COc1ccccc1 (stereo not given) — lower, -0.0724%
- O=C(Cc1ccccc1)N1CCC2(CC1)COCCN2CC1CC1 — lower, -9.82%
- CNC(=O)CN1CCOCC12CCN(C(=O)c1ccc(C)cc1)CC2 — lower, -6.86%
- O=C(C1CCOCC1)N1CCC2(CCN(Cc3nccs3)CC2)CC1 — lower, 9.62%
- CCOCC1CN(C(=O)c2cscn2)Cc2cn(C)nc21 (stereo not given) — lower, -4.69%
- CCOCC1CN(C(=O)c2cnccn2)Cc2cnn(CC3CC3)c21 (stereo not given) — lower, -10.4%
- CCOCC1CN(C(=O)c2ccncn2)Cc2cnn(CC)c21 (stereo not given) — lower, -11.7%
- O=C(c1ccnnc1)N1C[C@H]2CCC[C@@]2(COCc2ccccn2)C1 — lower, -3.81%
- CN1C(=O)CC(c2cnn(C)c2)C12CCN(C(=O)c1ccncc1)CC2 (stereo not given) — lower, -6.57%
- Cc1nc(COC[C@@H]2CCC[C@@]23CN(C)CCO3)cs1 — lower, 4.91%
- O=C1[C@H]2CN(Cc3cccs3)C[C@H]2CN1c1ccsc1 — lower, -5.8%
- CC(C)Nc1ncnc2c1CCN(C(=O)c1ccccc1F)CC2 — lower, -3.35%
- Fc1cccc(CN2C[C@@H]3COC[C@]3(COCc3ccncc3)C2)c1 — lower, -1.32%
- Cn1cc(N2CC3(CCN(Cc4cccnc4)CC3)OCC2=O)cn1 — lower, -3.89%
- c1coc(CN2C[C@@H]3OCCN(CC4CCCO4)[C@@H]3C2)c1 (stereo not given in full) — lower, -11.5%
- COc1cc(N2C[C@@H]3COC[C@]3(COCc3ccncc3)C2)ncn1 — lower, 8.15%
- Cc1noc(C)c1CN1Cc2nccn2CC(CN2CCOCC2)C1 (stereo not given) — lower, -11.8%
- c1ccc(NCc2cnc3n2CCN(CC2CCOC2)CC3)nc1 (stereo not given) — lower, -8.55%
- c1cnc(N2CC3(CCN(Cc4ccncc4)C3)C2)nc1 — lower, -6.13%
- Fc1cnc(N2CCCC3(CCN(Cc4ccoc4)C3)C2)nc1 (stereo not given) — lower, 11.2%
- CN1CCN(Cc2cccc(C#N)c2)Cc2cccnc21 — lower, -7.78%
- c1cnc(N2CCC3(CCN(Cc4cccnc4)CC3)CC2)nc1 — lower, -8.42%
